Experimental findings from patent publication US20160090556A1, “PRODUCTS COMPRISING MALODOR REDUCTION MATERIALS” (The Procter & Gamble Company, priority 2014, published 2016) are described below.

A short description of data set [1]: Liquid dish neat product liquid-air partition coefficient. In kind it is physicochemical. The settings on record: for Log of liquid dish neat product liquid-air partition coefficient (Comment Code K/L): class code letter within Comment Code.
A short description of data set [2]: Blocker Index (BI) assigned by perfumers/expert graders on isovaleric acid swatches. Also on record: species or system human; key: BI odor strength 0 (lowest, clean swatch) to 3 (highest). From the text: (§1) Blocker materials suitable for use in consumer products of the present invention are chosen for their ability to decrease malodor, while not interfering with perception of a fragrance. Material selection is done by assigning two indices to a test sample material from two reference scales in order to rank odor strengths. The two reference scales are the Fragrance Fidelity Index (FFI) scale and the Blocker Index (BI) scale. The FFI ranks the ability of the test sample material to impart a perceivable odor which could cause interference when combined with another fragrance and the BI ranks the ability of the test sample material to reduce malodor perception. The two methods for assigning the indices to a test sample on the FFI and the BI reference scales are given below.
The first step in the method for assigning a BI to a test sample material on the BI reference scale is to create the BI reference swatches. […] Fabric swatches for this test are white knit polycotton (4 inch×4 inch) swatches from EMC ordered as PC 50/50. The supplier is instructed to strip the swatches first, stripping involves washing twice with a fragrance-free detergent and rinsing three times.
The BI scale contains one clean swatch with no malodor applied. […] These solutions are pipetted to the middle of the swatches. […] After drying for 30 minutes in a vented hood, the swatches are wrapped in aluminum foil to prevent odor contamination to the treated swatch. A clean untreated swatch is also included as the lowest anchor point of reference for malodor strength on the BI scale. The BI reference scale swatches should be used within 0.5 to 12 hours and discarded after 12 hours. The swatches are used as scale anchor points when graders evaluate a test sample(s) and are assigned a Blocker Index (BI) as show in Table 12.
The perfumer/expert grader is asked to rank order swatches according to a scale between 0 and 3.
The reference swatches represent the 0, 1, 2, and 3 BIs on the BI reference scale, Table 12. The expert grader should familiarizes him/herself with the strength of the odor on the BI reference swatches by sniffing each one starting at 0 (the lowest odor strength) and ending at 3 (the highest odor strength). This should be done prior to evaluating the swatch treated with the test material.
To evaluate the BI, the test material is applied to a malodorous swatch to determine how well the test material blocks the malodor. […] After drying the malodorous swatch a known concentration of test material solution, between 1 ppm and 100 ppm is pipetted onto the malodorous swatch. […] It is sometimes necessary to evaluate several levels of the test material between about 1 and about 100 ppm to determine the BI.
At least two perfumers/expert graders are used to assign the BI to the test sample. […] The test sample swatch is assigned a BI at or between numbers on the BI in table.

Data set [3] can be described thus: Fragrance Fidelity Index (FFI) assigned by perfumers/expert graders on fabric swatches. Also on record: species or system human; key: FFI grade on reference scale anchored by 0, 1, 2, 3 swatches.
Description: as §1
The first step in the method for assigning an FFI to the test samples on the FFI reference scale is to create the FFI reference swatches. […] Fabric swatches for this test are white knit polycotton (4 inch×4 inch) swatches from EMC ordered as PC 50/50. The supplier is instructed to strip the swatches first, stripping involves washing twice with a fragrance-free detergent and rinsing three times.
Pipette 13 μL of each of the three solutions into the middle of a clean swatch resulting in about a 1 cm diameter of the solution in the middle of the swatch. This will create a sensory scale of three swatches with three different odor levels based on the concentration of the solution pipetted onto the swatch. After drying for 30 minutes in a vented hood, the swatches are wrapped in aluminum foil to prevent odor contamination to the treated swatch. A clean untreated swatch is also included as the lowest anchor point of reference for odor strength on the FFI scale. The FFI reference scale swatches should be used within 0.5 to 12 hours and discarded after 12 hours. The swatches are used as scale anchor points when graders evaluate a test sample(s) and are assigned a Fragrance Fidelity Index (FFI) as show in Table 7.
The perfumer/expert panel is asked to rank order swatches according to a scale between 0 and 3.
The reference swatches represent the 0, 1, 2, and 3 FFIs on the FFI reference scale, Table 9. The expert grader should familiarize them self with the strength of the odor on the FFI reference swatches by sniffing each one starting at 0 (the lowest odor strength) and ending at 3 (the highest odor strength). This should be done prior to evaluating the test sample material treated swatch.
A clean swatch is treated with 13 μL of a known concentration of a test sample material resulting in an about 1 cm of the solution on the clean swatch. Just like the reference swatches, the test sample material swatch is dried in a vented hood for 30 minutes and then wrapped in aluminum foil to prevent contamination. The test material swatches and the FFI reference swatches should be made within 2 hours of each other. The test material swatch must be used within 0.5 to 12 hours and discarded after 12 hours.
At least two perfumers/expert graders are used to assign an FFI grade to a test sample. The perfumer/expert grader smells the test sample swatch by holding that swatch 1 inch from their nose with their nose centered over the area where the test sample was pipetted on to the fabric and then assigns the test sample an FFI grade using the FFI reference scale anchor swatches as references. In cases where the test sample material is graded greater than 3, the test material is not a blocker material or the concentration of the material needs to be lowered and reevaluated to determine if a lower level has a malodor blocker functionality.

The mark [4] stands for this setting: Conc 10 ppm test material on isovaleric acid swatch.
[5] abbreviates: Conc 50 ppm test material on isovaleric acid swatch.
Where [6] appears, read: Conc 10 ppm test material on swatch.
The mark [7] stands for this setting: Conc 50 ppm test material on swatch.

`CC1(C)CCc2ccc(CCC=O)cc21` [Material 261]: in data set [1], the “Log of liquid dish neat product liquid-air partition coefficient (Comment Code K/L)” value is recorded as “K (Log of liquid dish neat product liquid-air partition coefficient greater than or equal to −7)”. The “Comment Code: Log of liquid dish neat product liquid-air partition coefficient” value in data set [1] (code letters K, L) is “K (Log of liquid dish neat product liquid-air partition coefficient greater than or equal to −7)”. Besides, the BI in data set [2] (setting [4]) is given as 1.8; in data set [2] (setting [5]), 1.3. For the same compound, the FFI amounted to 0 in data set [3] (setting [6]) and 1.3 in data set [3] (setting [7]).

Turning to `CCCCCCCCCCCC(=O)OCC` [Material 391], the “Log of liquid dish neat product liquid-air partition coefficient (Comment Code K/L)” value in data set [1] was “K (Log of liquid dish neat product liquid-air partition coefficient greater than or equal to −7)”. The compound also gave a BI in data set [2] (setting [5]) of 2.2. In data set [3] (setting [7]), this compound yielded an FFI of 0.3.

For the compound `CC1(C)C2CCC3(C2)C1C(=O)CCC3(C)C` (stereo not drawn) [Material 1149], the “Comment Code: Log of liquid dish neat product liquid-air partition coefficient” value in data set [1] (code letters K, L) was “K (Log of liquid dish neat product liquid-air partition coefficient greater than or equal to −7)”; in data set [1] (codes K/L of the Comment Code, Table 1), “K (Log of liquid dish neat product liquid-air partition coefficient greater than or equal to −7)”. Also, the results for the BI in data set [2] (setting [4]) and in data set [2] (setting [5]) were 1.5 and 2.3, respectively. Besides, the values for the FFI in data set [3] (setting [6]) and in data set [3] (setting [7]) were 0 and 0.8, respectively.
